Source: PMC7340254, “Structure-based screening of binding affinities via small-angle X-ray scattering” (IUCrJ, 2020)

Assays:
GlnBP = biological target: GlnBP; set-up: method as in Clifton & Jackson (2016); conditions: ref Clifton & Jackson (2016), read-out: K D (ITC, literature); cited from earlier work
[1] = biological target: T1, histidine-binding protein (HisBP) (Escherichia coli, UniProt P0AEU0); test: NMR chemical shift perturbation titration; set-up: Uniprot entry P0AEU0, residues 23–260; His6 tag with TEV cleavage site (N, cleaved yes); made in house; host or cells: E. coli BL21(DE3); species or system E. coli; conditions: HisBP 200 µM, 298 K, chemical shift perturbations; read-out: K D (NMR)
Source text: All NMR experiments have been carried out at 298 K on an 800 MHz Bruker Avance III NMR spectrometer equipped with a cryogenic probehead. […] Data were processed with NMRpipe (Delaglio et al., 1995[▸]), analyzed using NMRFAM-Sparky (Lee et al., 2015[▸]) and visualized with Python modules nmrglue and matplotlib (Helmus & Jaroniec, 2013[▸]; Hunter, 2007[▸]).
Backbone assignments of apo- and His-bound HisBP have been derived from BMRB entries 19242 and 19245 (Chu et al., 2013[▸]). The assignment of Arg-bound HisBP is produced by extending the apo-HisBP assignment along titrations, leaving sites in slow exchange unassigned. For affinity computations based on chemical shift perturbations, ^1H and ^15N shifts have been combined to a composite shift δ = [(δH)^2 + (0.2δN)^2]^1/2. The derivation of an overall dissociation constant from chemical shift perturbations follows the work by Williamson (2013[▸]), where the shift in peak position is used to derive free and bound populations without considering peak intensities. The effect of site-specific exchange rates upon peak positions is taken into account (London, 1993[▸]). We discarded residues with either insignificant shifts at saturation (δ < 0.05) or which were in slow exchange such that peak positions alone were no longer informative. […]

HisBP = biological target: HisBP; set-up: method as in Paul et al. (2016); conditions: ref Paul et al. (2016), read-out: K D (ITC, literature); cited from earlier work
[2] = biological target: T2, glutamine-binding protein (GlnBP) (Escherichia coli, UniProt P0AEQ3); test: SAXS-based ligand titration; set-up: species or system E. coli; conditions: ESRF, 3.0 × 10^12 photons, GlnBP 80 µM; 'no change' = no significant changes in scattering curves
T2 construct: Uniprot entry P0AEQ3, residues 23–248; made in house; host or cells: E. coli BL21(DE3)
Source text: Their preliminary results have been excluded from this report.

[3] = biological target: T1, histidine-binding protein (HisBP); test: biochemical
Description: (§1) All ITC measurements were conducted on a Malvern MicroCal PEAQ ITC at 20°C with stirring at 200 rev min^−1 using the same buffer as in SAXS measurements. The cell was initially loaded with 200 µl of 20 µM protein with an initial ligand concentration of 200 µM in the syringe to quantify His:HisBP binding. This was further adjusted in subsequent runs to resolve weaker interactions as necessary.

[4] = biological target: T1, histidine-binding protein (HisBP); test: biochemical; remark: listed apart in the source
Description: Titrations were conducted at fixed protein concentrations to exclude signal-to-noise factors. An initial mass concentration of 2.0 or 4.0 mg ml^−1 was employed in prospective experiments, then scaled to 2.0, 1.0, 0.5 and 0.25 mg ml^−1 in later concentration-variation studies. […] A total of eight beamline experiments were conducted, using the automated sample changing environments available on site, operated in constant-flow mode: three times at ESRF BM29, three at DESY P12, once at Australian Synchrotron SAXS/WAXS and once at Diamond B21. […] Furthermore, experiments at ESRF BM29 and Diamond B21 were carried out on site, while the DESY P12 experiment was carried out by mail-in. For these measurements, samples were prepared by pipetting ligand–protein mixtures onto 96-well plates prior to transport. As for the Australian Synchrotron measurements, apo–HisBP was lyophilized in its final buffer and reconstituted on site using pure H2O and then mixed with the ligands in 96-well plates.
Buffer-subtracted intensities provided from respective synchrotron pipelines were used as starting points for analysis. […] Thus, an intermediate value of 7.2 nm was fixed for all computations involving D max including V R.
This was used to assist in locating data points affected by sample handling errors or measurement failures, along with detectable aggregation. The ideal minimum angle after removal of parasitic scattering is 0.1–0.15 nm^−1, although a more conservative cutoff was used to collectively eliminate residual aggregation. The maximum usable q was determined by visual inspection of noise. The final ranges used across all HisBP beamline sessions were: 0.2–2.0 nm^−1 at 20 µM and below, 0.25–2.5 nm^−1 at 40 µM, and 0.3–3 nm^−1 above 80 µM. The q-ranges for DEBP and GlnBP were set to 0.1–2.8 nm^−1.
A common scattering reference is created per HisBP concentration and per beamline experiment by averaging apo protein replicates after discarding outliers. This reference is used for both V R and χlin computations.
To fit binding curves against metrics, we consider all titrations conducted per protein concentration per beamline experiment as a single set, after removing data points resulting from aggregation, preparation errors or measurement errors. […] Since the two-state binding curve at constant [R] cannot effectively discriminate between K D values much larger or smaller than [R], fitted K D values are limited to within four orders of magnitude of the receptor concentration (cf. Fig. S1). […] Error bars indicate σ of logK D from the ensemble of replicate predictions. For metrics where uncertainty was not computed (V R and V P), the uncertainty was estimated by single-point removal, where K D was recomputed after removal of each titration point. The σ of the resulting replicates are taken as the σ of logK D. To eliminate cases where the fitting process fails due to ill-constrained parameters, replicates were discarded if the fitted apo–holo differences were >3σ from the mean value of all replicates.

[5] = biological target: T2, glutamine-binding protein (GlnBP); test: Isothermal titration calorimetry (ITC, this work); set-up: species or system E. coli; conditions: 20°C, read-out: K D (ITC, this work)
Description: as §1

T1 sequence (P0AEU0 23-260): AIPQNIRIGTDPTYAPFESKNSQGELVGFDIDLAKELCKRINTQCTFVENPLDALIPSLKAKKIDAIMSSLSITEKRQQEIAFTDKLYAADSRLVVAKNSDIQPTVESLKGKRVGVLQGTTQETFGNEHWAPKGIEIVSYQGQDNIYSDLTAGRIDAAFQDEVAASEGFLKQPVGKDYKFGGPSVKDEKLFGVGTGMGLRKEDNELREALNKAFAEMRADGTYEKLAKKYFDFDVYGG
T2 sequence (P0AEQ3 23-248): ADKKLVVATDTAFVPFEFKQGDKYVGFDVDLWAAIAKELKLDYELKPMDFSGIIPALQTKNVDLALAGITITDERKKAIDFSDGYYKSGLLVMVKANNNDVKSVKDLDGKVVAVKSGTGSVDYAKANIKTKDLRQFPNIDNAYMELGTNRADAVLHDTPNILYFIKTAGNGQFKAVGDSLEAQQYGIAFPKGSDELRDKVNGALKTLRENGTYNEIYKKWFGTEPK

## N=C(N)NCCC[C@H](N)C(=O)O [Arg, arginine]
GlnBP
  Kd: 93800 ± 7400 nM
[1]
  Kd: 560 nM
HisBP
  Kd: 3000 ± 1000 nM
[2]
  K D derived from V R titration curves (result in words): No change
[3]
  Kd: 2060 ± 220 nM
[4]; K D fitted to SAXS V R titration curves, AustSynch, 20s exposure, […] 10^13 photons, HisBP 19 µM
  Kd: 2800 ± 310 nM
[4]; K D fitted to SAXS V R titration curves, AustSynch, 20s exposure, […] 10^13 photons, HisBP 38 µM
  Kd: 3000 ± 1400 nM
[4]; K D fitted to SAXS V R titration curves, AustSynch, 20s exposure, […] 10^13 photons, HisBP 76 µM
  Kd: 5500 ± 1400 nM
[4]; K D fitted to SAXS V R titration curves, DESY, 4s exposure, […] 10^13 photons, HisBP 20 µM
  Kd: 33000 ± 4500 nM
[4]; K D fitted to SAXS V R titration curves, DESY, 4s exposure, […] 10^13 photons, HisBP 40 µM
  Kd: 74000 ± 19000 nM
[4]; K D fitted to SAXS V R titration curves, DESY, 4s exposure, […] 10^13 photons, HisBP 80 µM
  Kd: 5900 ± 600 nM
[4]; K D fitted to SAXS V R titration curves, Diamond, 40s exposure, […] 10^14 photons, HisBP 10 µM
  Kd: 370 ± 140 nM
[4]; K D fitted to SAXS V R titration curves, Diamond, 40s exposure, […] 10^14 photons, HisBP 20 µM
  Kd: 920 ± 110 nM
[4]; K D fitted to SAXS V R titration curves, Diamond, 40s exposure, […] 10^14 photons, HisBP 40 µM
  Kd: 4800 ± 480 nM
[4]; K D fitted to SAXS V R titration curves, Diamond, 40s exposure, […] 10^14 photons, HisBP 80 µM
  Kd: 7300 ± 1900 nM
[4]; K D fitted to SAXS V R titration curves, ESRF, 5s exposure, 3.0 × 10^12 photons, HisBP 38 µM
  Kd: 2000 ± 1900 nM
[4]; K D fitted to SAXS V R titration curves, ESRF, 5s exposure, 3.0 × 10^12 photons, HisBP 160 µM
  Kd: 710 ± 1000 nM
[4]; KD fitted to SAXS Rg curves, AustSynch, 20s exposure, HisBP 19 µM
  Kd: 7700 ± 2000 nM
[4]; KD fitted to SAXS Rg curves, AustSynch, 20s exposure, HisBP 38 µM
  Kd: 52 ± 40 nM
[4]; KD fitted to SAXS Rg curves, AustSynch, 20s exposure, HisBP 76 µM
  Kd: 1600 nM
[4]; KD fitted to SAXS Rg curves, DESY, 4s exposure, HisBP 20 µM
  Kd: 15000 ± 6800 nM
[4]; KD fitted to SAXS Rg curves, DESY, 4s exposure, HisBP 40 µM
  Kd: 150000 ± 52000 nM
[4]; KD fitted to SAXS Rg curves, DESY, 4s exposure, HisBP 80 µM
  Kd: 27000 ± 7100 nM
[4]; KD fitted to SAXS Rg curves, Diamond, 40s exposure, HisBP 20 µM
  Kd: 810 nM
[4]; KD fitted to SAXS Rg curves, Diamond, 40s exposure, HisBP 40 µM
  Kd: 1500 ± 4400 nM
[4]; KD fitted to SAXS Rg curves, Diamond, 40s exposure, HisBP 80 µM
  Kd: 1100 ± 2500 nM
[4]; KD fitted to SAXS Rg curves, ESRF, 5s exposure, HisBP 38 µM
  Kd: 2600 nM
[4]; KD fitted to SAXS Rg curves, ESRF, 5s exposure, HisBP 160 µM
  Kd: 390 ± 280 nM
[4]; KD fitted to SAXS Vc curves, AustSynch, 20s exposure, HisBP 19 µM
  Kd: 2100 ± 6000 nM
[4]; KD fitted to SAXS Vc curves, AustSynch, 20s exposure, HisBP 38 µM
  Kd: 3700 ± 6600 nM
[4]; KD fitted to SAXS Vc curves, AustSynch, 20s exposure, HisBP 76 µM
  Kd: 2000 nM
[4]; KD fitted to SAXS Vc curves, DESY, 4s exposure, HisBP 20 µM
  Kd: 6300 nM
[4]; KD fitted to SAXS Vc curves, DESY, 4s exposure, HisBP 80 µM
  Kd: 17 ± 41 nM
[4]; KD fitted to SAXS Vc curves, Diamond, 40s exposure, HisBP 20 µM
  Kd: 6300 nM
[4]; KD fitted to SAXS Vc curves, Diamond, 40s exposure, HisBP 80 µM
  Kd: 38 nM
[4]; KD fitted to SAXS Vc curves, ESRF, 5s exposure, HisBP 7.6 µM
  Kd: 280 ± 720 nM
[4]; KD fitted to SAXS Vc curves, ESRF, 5s exposure, HisBP 38 µM
  Kd: 75 nM
[4]; KD fitted to SAXS Vc curves, ESRF, 5s exposure, HisBP 160 µM
  Kd: 910 nM
[4]; KD fitted to SAXS χlin. curves, AustSynch, 20s exposure, HisBP 19 µM
  Kd: 11000 ± 7600 nM
[4]; KD fitted to SAXS χlin. curves, AustSynch, 20s exposure, HisBP 38 µM
  Kd: 10000 ± 2000 nM
[4]; KD fitted to SAXS χlin. curves, AustSynch, 20s exposure, HisBP 76 µM
  Kd: 11000 ± 1400 nM
[4]; KD fitted to SAXS χlin. curves, DESY, 4s exposure, HisBP 20 µM
  Kd: 4100 ± 2100 nM
[4]; KD fitted to SAXS χlin. curves, DESY, 4s exposure, HisBP 40 µM
  Kd: 140000 ± 42000 nM
[4]; KD fitted to SAXS χlin. curves, DESY, 4s exposure, HisBP 80 µM
  Kd: 42000 ± 6700 nM
[4]; KD fitted to SAXS χlin. curves, Diamond, 40s exposure, HisBP 20 µM
  Kd: 1400 nM
[4]; KD fitted to SAXS χlin. curves, Diamond, 40s exposure, HisBP 40 µM
  Kd: 23000 ± 7100 nM
[4]; KD fitted to SAXS χlin. curves, Diamond, 40s exposure, HisBP 80 µM
  Kd: 12 ± 20 nM
[4]; KD fitted to SAXS χlin. curves, ESRF, 5s exposure, HisBP 7.6 µM
  Kd: 1900 ± 2000 nM
[4]; KD fitted to SAXS χlin. curves, ESRF, 5s exposure, HisBP 152 µM
  Kd: 91 nM
[5]
  Kd: 78900 ± 8600 nM
